Literature values as cited in article PMC7395068, “The evolution of strategies to minimise the risk of human drug-induced liver injury (DILI) in drug discovery and development” (Archives of Toxicology, 2020).
Where two headings read alike, the source gives them in different places. Where a SMILES comes first, the peptide text is derived from it. [ ]: non-standard residue; d: D form. d(hArg(Et2)) = CCN=C(NCC)NCCCC[C@@H](N)C(=O)O; hArg(Et2) = CCN=C(NCC)NCCCC[C@H](N)C(=O)O; dPhe(4-Cl) = N[C@H](Cc1ccc(Cl)cc1)C(=O)O; d2Nal = N[C@H](Cc1ccc2ccccc2c1)C(=O)O; d3Pal = N[C@H](Cc1cccnc1)C(=O)O

Conditions: cited from earlier work
[1] = binary in vivo human DILI call, ref Chen 2016
[2] = human DILI, LTKB DILIrank category, ref Chen 2016

CC(C)c1cccc(C(C)C)c1OCOP(=O)(O)O [fospropofol]
DILI +VE (5-8), DILI -VE (-4) [1]: +VE | DILI severity category [2]: vLess-DILI-Concern

CN[C@@H]1CCc2[nH]c3ccc(C(N)=O)cc3c2C1 [frovatriptan]
DILI +VE (5-8), DILI -VE (-4) [1]: -VE | DILI severity category [2]: vNo-DILI-Concern

C[C@]12CC[C@@H]3c4ccc(O)cc4C[C@@H](CCCCCCCCC[S+]([O-])CCCC(F)(F)C(F)(F)F)[C@H]3[C@@H]1CC[C@@H]2O (stereo partly drawn) [fulvestrant]
DILI +VE (5-8), DILI -VE (-4) [1]: -VE | DILI severity category [2]: Ambiguous DILI-concern

CNC[C@H](O)[C@@H](O)[C@H](O)[C@H](O)CO.CNC[C@H](O)[C@@H](O)[C@H](O)[C@H](O)CO.O=C([O-])CN(CCN(CC(=O)[O-])CC(=O)O)CCN(CC(=O)O)C(COCc1ccccc1)C(=O)[O-].[Gd+3] (stereo not drawn) [gadobenate dimeglumine]
DILI +VE (5-8), DILI -VE (-4) (in vivo): -VE | DILI severity category (in vivo): vNo-DILI-Concern

CNC(=O)CN(CCN(CCN(CC(=O)[O-])CC(=O)NC)CC(=O)[O-])CC(=O)[O-].[Gd+3] [gadodiamide]
DILI +VE (5-8), DILI -VE (-4) (in vivo): -VE | DILI severity category (in vivo): Ambiguous DILI-concern

O=C([O-])CN(CCN(CC(=O)[O-])CC(COP(=O)([O-])OC1CCC(c2ccccc2)(c2ccccc2)CC1)N(CC(=O)[O-])CC(=O)[O-])CC(=O)[O-].[Gd+3].[Na+].[Na+].[Na+] (stereo not drawn) [gadofosveset trisodium]
DILI +VE (5-8), DILI -VE (-4) (in vivo): -VE | DILI severity category (in vivo): vNo-DILI-Concern

CNC[C@H](O)[C@@H](O)[C@H](O)[C@H](O)CO.CNC[C@H](O)[C@@H](O)[C@H](O)[C@H](O)CO.O=C([O-])CN(CCN(CC(=O)[O-])CC(=O)O)CCN(CC(=O)[O-])CC(=O)O.[Gd+3] [gadopentetate dimeglumine]
DILI +VE (5-8), DILI -VE (-4) (in vivo): -VE | DILI severity category (in vivo): vNo-DILI-Concern

CC(O)CN1CCN(CC(=O)[O-])CCN(CC(=O)[O-])CCN(CC(=O)[O-])CC1.[Gd+3] (stereo not drawn) [gadoteridol]
DILI +VE (5-8), DILI -VE (-4) (in vivo): -VE | DILI severity category (in vivo): vNo-DILI-Concern

COCCNC(=O)CN(CCN(CCN(CC(=O)[O-])CC(=O)NCCOC)CC(=O)[O-])CC(=O)[O-].[Gd+3] [gadoversetamide]
DILI +VE (5-8), DILI -VE (-4) (in vivo): -VE | DILI severity category (in vivo): vNo-DILI-Concern

O=[N+]([O-])[O-].O=[N+]([O-])[O-].O=[N+]([O-])[O-].[Ga+3] [gallium nitrate]
DILI +VE (5-8), DILI -VE (-4) [1]: -VE | DILI severity category [2]: Ambiguous DILI-concern

O=C(O)CCCO [gamma hydroxybutyric acid]
DILI +VE (5-8), DILI -VE (-4) [1]: -VE | DILI severity category [2]: vNo-DILI-Concern

CCN=C(NCC)NCCCC[C@H](NC(=O)[C@H](CC(C)C)NC(=O)[C@@H](CCCCNC(=NCC)NCC)NC(=O)[C@H](Cc1ccc(O)cc1)NC(=O)[C@H](CO)NC(=O)[C@@H](Cc1cccnc1)NC(=O)[C@@H](Cc1ccc(Cl)cc1)NC(=O)[C@@H](Cc1ccc2ccccc2c1)NC(C)=O)C(=O)N1CCC[C@H]1C(=O)N[C@H](C)C(N)=O [ganirelix acetate] (Ac-[d2Nal][dPhe(4-Cl)][d3Pal]SY[d(hArg(Et2))]L[hArg(Et2)]P[dA]-NH2)
DILI +VE (5-8), DILI -VE (-4) (in vivo): -VE | DILI severity category (in vivo): vNo-DILI-Concern

Nc1ccn([C@@H]2O[C@H](CO)[C@@H](O)C2(F)F)c(=O)n1 [gemcitabine]
DILI +VE (5-8), DILI -VE (-4) [1]: +VE | DILI severity category [2]: vMost-DILI-Concern

CC(C)C[C@H](NC(=O)[C@@H](COC(C)(C)C)NC(=O)[C@H](Cc1ccc(O)cc1)NC(=O)[C@H](CO)NC(=O)[C@H](Cc1c[nH]c2ccccc12)NC(=O)[C@H](Cc1cnc[nH]1)NC(=O)[C@@H]1CCC(=O)N1)C(=O)N[C@@H](CCCNC(=N)N)C(=O)N1CCC[C@H]1C(=O)NNC(N)=O [goserelin]
DILI +VE (5-8), DILI -VE (-4) [1]: -VE | DILI severity category [2]: Ambiguous DILI-concern

CN1C2CCCC1CC(NC(=O)c1nn(C)c3ccccc13)C2 (stereo not drawn) [granisetron]
DILI +VE (5-8), DILI -VE (-4) [1]: -VE | DILI severity category [2]: Ambiguous DILI-concern

N=C(N)NC(=O)Cc1c(Cl)cccc1Cl [guanfacine]
DILI +VE (5-8), DILI -VE (-4) [1]: -VE | DILI severity category [2]: Ambiguous DILI-concern

N=C(N)N [guanidine]
DILI +VE (5-8), DILI -VE (-4) (in vivo): -VE | DILI severity category (in vivo): Ambiguous DILI-concern

CCCCCCCCCC(=O)OC1(c2ccc(Cl)cc2)CCN(CCCC(=O)c2ccc(F)cc2)CC1 [haloperidol decanoate]
DILI +VE (5-8), DILI -VE (-4) [1]: -VE | DILI severity category [2]: Ambiguous DILI-concern

NCCc1cnc[nH]1.O=P(O)(O)O.O=P(O)(O)O [histamine diphosphate]
DILI +VE (5-8), DILI -VE (-4) (in vivo): -VE | DILI severity category (in vivo): vNo-DILI-Concern

CCNC(=O)[C@@H]1CCCN1C(=O)[C@H](CCCNC(=N)N)NC(=O)[C@H](CC(C)C)NC(=O)[C@@H](Cc1cn(Cc2ccccc2)cn1)NC(=O)[C@H](Cc1ccc(O)cc1)NC(=O)[C@H](CO)NC(=O)[C@H](Cc1c[nH]c2ccccc12)NC(=O)[C@H](Cc1cnc[nH]1)NC(=O)[C@@H]1CCC(=O)N1 [histrelin acetate]
DILI +VE (5-8), DILI -VE (-4) [1]: -VE | DILI severity category [2]: Ambiguous DILI-concern

C/C1=C2/[N-][C@H]([C@H](CC(N)=O)[C@@]2(C)CCC(=O)NC[C@@H](C)OP(=O)([O-])O[C@H]2[C@@H](O)[C@@H](n3cnc4cc(C)c(C)cc43)O[C@@H]2CO)[C@]2(C)N=C(/C(C)=C3N=C(/C=C4N=C1[C@@H](CCC(N)=O)C\4(C)C)[C@@H](CCC(N)=O)[C@]\3(C)CC(N)=O)[C@@H](CCC(N)=O)[C@]2(C)CC(N)=O.[Co+3].[OH-] [hydroxocobalamin]
DILI +VE (5-8), DILI -VE (-4) [1]: -VE | DILI severity category [2]: Ambiguous DILI-concern

CCN(CCO)CCCC(C)Nc1ccnc2cc(Cl)ccc12 (stereo not drawn) [hydroxychloroquine]
DILI +VE (5-8), DILI -VE (-4) [1]: +VE | DILI severity category [2]: vLess-DILI-Concern

CCCCCC(=O)O[C@]1(C(C)=O)CC[C@H]2[C@@H]3CCC4=CC(=O)CC[C@]4(C)[C@H]3CC[C@@]21C [hydroxyprogesterone caproate]
DILI +VE (5-8), DILI -VE (-4) [1]: -VE | DILI severity category [2]: Ambiguous DILI-concern

CCCCCN(C)CCC(O)(P(=O)(O)O)P(=O)(O)O [ibandronate]
DILI +VE (5-8), DILI -VE (-4) [1]: -VE | DILI severity category [2]: vNo-DILI-Concern

CCCCCCCN(CC)CCCC(O)c1ccc(NS(C)(=O)=O)cc1 (stereo not drawn) [ibutilide]
DILI +VE (5-8), DILI -VE (-4) (in vivo): -VE | DILI severity category (in vivo): vNo-DILI-Concern

COc1cc(C(C)=O)ccc1OCCCN1CCC(c2noc3cc(F)ccc23)CC1 [iloperidone]
DILI +VE (5-8), DILI -VE (-4) [1]: -VE | DILI severity category [2]: Ambiguous DILI-concern

CC1Cc2ccccc2N1NC(=O)c1ccc(Cl)c(S(N)(=O)=O)c1 (stereo not drawn) [indapamide]
DILI +VE (5-8), DILI -VE (-4) [1]: -VE | DILI severity category [2]: Ambiguous DILI-concern

CC1(C)C(/C=C/C=C/C=C/C=C2\N(CCCCS(=O)(=O)O)c3ccc4ccccc4c3C2(C)C)=[N+](CCCCS(=O)(=O)[O-])c2ccc3ccccc3c21 [indocyanine green]
DILI +VE (5-8), DILI -VE (-4) [1]: -VE | DILI severity category [2]: vNo-DILI-Concern

O=C(CCCCC(=O)Nc1c(I)cc(I)c(C(=O)O)c1I)Nc1c(I)cc(I)c(C(=O)O)c1I [iodipamide meglumine]
DILI +VE (5-8), DILI -VE (-4) [1]: -VE | DILI severity category [2]: vNo-DILI-Concern

CNC(=O)c1c(I)c(NC(C)=O)c(I)c(C(=O)O)c1I [iothalamate sodium]
DILI +VE (5-8), DILI -VE (-4) [1]: -VE | DILI severity category [2]: vNo-DILI-Concern

CCc1c2c(nc3ccc(OC(=O)N4CCC(N5CCCCC5)CC4)cc13)-c1cc3c(c(=O)n1C2)COC(=O)[C@]3(O)CC [irinotecan]
DILI +VE (5-8), DILI -VE (-4) (in vivo): +VE | DILI severity category (in vivo): vLess-DILI-Concern

CC(C)Nc1ncccn1 [isaxonine]
DILI +VE (5-8), DILI -VE (-4) [1]: +VE | DILI severity category [2]: vMost-DILI-Concern

O=[N+]([O-])O[C@@H]1CO[C@H]2[C@@H]1OC[C@@H]2O [isorbide mononitrate]
DILI +VE (5-8), DILI -VE (-4) (in vivo): -VE | DILI severity category (in vivo): Ambiguous DILI-concern

CC[C@H](C)[C@H]1O[C@]2(CC[C@@H]1C)C[C@@H]1C[C@@H](C/C=C(\C)[C@@H](O[C@H]3C[C@H](OC)[C@@H](O[C@H]4C[C@H](OC)[C@@H](O)[C@H](C)O4)[C@H](C)O3)[C@@H](C)/C=C/C=C3\CO[C@@H]4[C@H](O)C(C)=C[C@@H](C(=O)O1)[C@]34O)O2 [ivermectin]
DILI +VE (5-8), DILI -VE (-4) [1]: +VE | DILI severity category [2]: vLess-DILI-Concern

C/C(=C\c1csc(C)n1)[C@@H]1C[C@@H]2O[C@]2(C)CCC[C@H](C)[C@H](O)[C@@H](C)C(=O)C(C)(C)[C@@H](O)CC(=O)N1 [ixabepilone]
DILI +VE (5-8), DILI -VE (-4) [1]: -VE | DILI severity category [2]: Ambiguous DILI-concern

CNC1(c2ccccc2Cl)CCCCC1=O (stereo not drawn) [ketamine]
DILI +VE (5-8), DILI -VE (-4) [1]: +VE | DILI severity category [2]: vLess-DILI-Concern

C[N+](C)(C)C[C@H](O)CC(=O)[O-] [l-carnitine]
DILI +VE (5-8), DILI -VE (-4) [1]: -VE | DILI severity category [2]: vNo-DILI-Concern

N[C@@H](CS)C(=O)O [l-cysteine]
DILI +VE (5-8), DILI -VE (-4) (in vivo): -VE | DILI severity category (in vivo): Ambiguous DILI-concern

CSCC[C@H](N)C(=O)O [l-methionine]
DILI +VE (5-8), DILI -VE (-4) [1]: -VE | DILI severity category [2]: vNo-DILI-Concern
